Assays:
Assay type in all cases: in vivo
[1] = test system: Echinochloa crus-galli var. crus-galli; assay: Test Example 3: herbicidal effect by foliage application, Wagner pot (symbol H); conditions: application herbicide amount 320 g/ha
Protocol: (§1) Herbicidal Effect Test by Foliage Application
(§2) After alluvial soil was placed into 1/10000 are of Wagner pot, water was poured and mixed to form a submerged condition having a water depth of 0.1 cm to 0.5 cm. Seeds of Echinochloa crus-galli var. crus-galli, Leptochloa chinensis, Cyperus difformis, and rice were sowed and the pot was placed in the greenhouse of 25° C. to 30° C. to grow the plants. After the plants were grown for 14 days, the emulsion agent of the compound of the present invention prepared in accordance with Formulation Example 2 was diluted with water so as to be a predetermined herbicide amount and the diluted emulsion agent was uniformly applied to a foliage part with a small-size spray. 3 weeks later from the herbicide application, the effect to each plant was investigated in accordance with the criteria of Test Example 1.

[2] = test system: Leptochloa chinensis; assay: Test Example 3: herbicidal effect by foliage application, Wagner pot (symbol D); conditions: application herbicide amount 320 g/ha
Protocol: as §1, §2

[3] = test system: directly sowed rice plant; assay: Test Example 3: effect on crop by foliage application, Wagner pot (symbol b); conditions: application herbicide amount 320 g/ha
Protocol: as §1
After alluvial soil was placed into 1/10000 are of Wagner pot, water was poured and mixed to form a submerged condition having a water depth of 0.1 cm to 0.5 cm. Seeds of Echinochloa crus-galli var. crus-galli, Leptochloa chinensis, Cyperus difformis, and rice were sowed and the pot was placed in the greenhouse of 25° C. to 30° C. to grow the plants.

[4] = test system: Digitaria ciliaris; assay: Test Example 5: herbicidal effect by foliage application, plastic box (symbol F); conditions: 320 g/ha, 3 weeks after application
From the text: as §1
(§3) Sterilized diluvial soil was placed in a plastic box having a length of 21 cm, a width of 13 cm, and a depth of 7 cm. Each of the seeds of Digitaria ciliaris, Setaria viridis, Echinochloa crus-galli var. crus-galli, Avena fatua, Alopecurus myosuroides, Lolium multiflorum Lam., Apera spica-venti, Abutilon theophrasti, Amaranthus retroflexus, Chenopodium album, Stellaria media, Galium spurium, Veronica persica, corn, soybean, rice plant, wheat, beet, and rapeseed was sowed in a spot-like manner and was covered with the soil of a thickness of about 1.5 cm. Thereafter, the plants were grown in the greenhouse of 25° C. to 30° C. After the plants were grown for 14 days, the emulsion agent of the compound of the present invention prepared in accordance with Formulation Example 2 was diluted with water so as to be a predetermined herbicide amount and the diluted emulsion agent was uniformly applied to a foliage part with a small-size spray. 3 weeks later from the herbicide application, the effect to each plant was investigated in accordance with the criteria of Test Example 1.

[5] = test system: Setaria viridis; assay: Test Example 5: herbicidal effect by foliage application, plastic box (symbol G); conditions: 320 g/ha, 3 weeks after application
From the text: as §1, §3

[6] = test system: Echinochloa crus-galli var. crus-galli; assay: Test Example 5: herbicidal effect by foliage application, plastic box (symbol H); conditions: 320 g/ha, 3 weeks after application
From the text: as §1, §3

[7] = test system: Avena fatua; assay: Test Example 5: herbicidal effect by foliage application, plastic box (symbol I); conditions: 320 g/ha, 3 weeks after application
From the text: as §1, §3

[8] = test system: Alopecurus myosuroides; assay: Test Example 5: herbicidal effect by foliage application, plastic box (symbol J); conditions: 320 g/ha, 3 weeks after application
From the text: as §1, §3

[9] = test system: Lolium multiflorum Lam.; assay: Test Example 5: herbicidal effect by foliage application, plastic box (symbol K); conditions: 320 g/ha, 3 weeks after application
From the text: as §1, §3

[10] = test system: Apera spica-venti; assay: Test Example 5: herbicidal effect by foliage application, plastic box (symbol L); conditions: 320 g/ha, 3 weeks after application
From the text: as §1, §3

[11] = test system: Abutilon theophrasti; assay: Test Example 5: herbicidal effect by foliage application, plastic box (symbol M); conditions: 320 g/ha, 3 weeks after application
From the text: as §1, §3

[12] = test system: Amaranthus retroflexus; assay: Test Example 5: herbicidal effect by foliage application, plastic box (symbol N); conditions: 320 g/ha, 3 weeks after application
From the text: as §1, §3

[13] = test system: Chenopodium album; assay: Test Example 5: herbicidal effect by foliage application, plastic box (symbol O); conditions: 320 g/ha, 3 weeks after application
From the text: as §1, §3

[14] = test system: Stellaria media; assay: Test Example 5: herbicidal effect by foliage application, plastic box (symbol P); conditions: 320 g/ha, 3 weeks after application
From the text: as §1, §3

[15] = test system: Galium spurium; assay: Test Example 5: herbicidal effect by foliage application, plastic box (symbol Q); conditions: 320 g/ha, 3 weeks after application
From the text: as §1, §3

[16] = test system: Veronica persica; assay: Test Example 5: herbicidal effect by foliage application, plastic box (symbol R); conditions: 320 g/ha, 3 weeks after application
From the text: as §1, §3

[17] = test system: corn; assay: Test Example 5: effect on crop by foliage application, plastic box (symbol c); conditions: 320 g/ha, 3 weeks after application
From the text: as §1
(§4) Sterilized diluvial soil was placed in a plastic box having a length of 21 cm, a width of 13 cm, and a depth of 7 cm. Each of the seeds of Digitaria ciliaris, Setaria viridis, Echinochloa crus-galli var. crus-galli, Avena fatua, Alopecurus myosuroides, Lolium multiflorum Lam., Apera spica-venti, Abutilon theophrasti, Amaranthus retroflexus, Chenopodium album, Stellaria media, Galium spurium, Veronica persica, corn, soybean, rice plant, wheat, beet, and rapeseed was sowed in a spot-like manner and was covered with the soil of a thickness of about 1.5 cm. Thereafter, the plants were grown in the greenhouse of 25° C. to 30° C.

[18] = test system: soybean; assay: Test Example 5: effect on crop by foliage application, plastic box (symbol d); conditions: 320 g/ha, 3 weeks after application
From the text: as §1, §4

[19] = test system: rice plant; assay: Test Example 5: effect on crop by foliage application, plastic box (symbol b); conditions: 320 g/ha, 3 weeks after application
From the text: as §1, §4

[20] = test system: wheat; assay: Test Example 5: effect on crop by foliage application, plastic box (symbol e); conditions: 320 g/ha, 3 weeks after application
From the text: as §1, §4

[21] = test system: beet; assay: Test Example 5: effect on crop by foliage application, plastic box (symbol f); conditions: 320 g/ha, 3 weeks after application
From the text: as §1, §4

[22] = test system: rapeseed; assay: Test Example 5: effect on crop by foliage application, plastic box (symbol g); conditions: 320 g/ha, 3 weeks after application
From the text: as §1, §4

[23] = test system: Cyperus difformis; assay: Test Example 3: herbicidal effect by foliage application, Wagner pot (symbol E); conditions: application herbicide amount 320 g/ha
Protocol: as §1, §2

Compound | herbicidal effect on H (Echinochloa crus-galli var. crus-galli), grade 0-5 [1] | herbicidal effect on D (Leptochloa chinensis), grade 0-5 [2] | effect on crop b (directly sowed rice plant), grade 0-5 [3] | F: Digitaria ciliaris, herbicidal effect (criteria of Test Example 1) [4] | G: Setaria viridis, herbicidal effect (criteria of Test Example 1) [5] | H: Echinochloa crus-galli var. crus-galli, herbicidal effect (criteria of Test Example 1) [6] | I: Avena fatua, herbicidal effect (criteria of Test Example 1) [7] | J: Alopecurus myosuroides, herbicidal effect (criteria of Test Example 1) [8] | K: Lolium multiflorum Lam., herbicidal effect (criteria of Test Example 1) [9] | L: Apera spica-venti, herbicidal effect (criteria of Test Example 1) [10] | M: Abutilon theophrasti, herbicidal effect (criteria of Test Example 1) [11] | N: Amaranthus retroflexus, herbicidal effect (criteria of Test Example 1) [12] | O: Chenopodium album, herbicidal effect (criteria of Test Example 1) [13] | P: Stellaria media, herbicidal effect (criteria of Test Example 1) [14] | Q: Galium spurium, herbicidal effect (criteria of Test Example 1) [15] | R: Veronica persica, herbicidal effect (criteria of Test Example 1) [16] | c: corn, effect on crop (criteria of Test Example 1) [17] | d: soybean, effect on crop (criteria of Test Example 1) [18] | b: directly sowed rice plant, effect on crop (criteria of Test Example 1) [19] | e: wheat, effect on crop (criteria of Test Example 1) [20] | also measured
CON=C(C)CC1CC(O)=C(c2c(C)cc(-c3ccncc3)cc2C)C1=O (stereo not shown) [6-105] | 3 (Herbicidal ratio of 40% or higher and lower than 70%) | 4 (Herbicidal ratio of 70% or higher and lower than 90%) | 4 (Herbicidal ratio of 70% or higher and lower than 90%) | 5 (Herbicidal ratio of 90% or more (almost completely withered)) | 5 (Herbicidal ratio of 90% or more (almost completely withered)) | 5 (Herbicidal ratio of 90% or more (almost completely withered)) | 2 (Herbicidal ratio of 20% or higher and lower than 40%) | 2 (Herbicidal ratio of 20% or higher and lower than 40%) | 4 (Herbicidal ratio of 70% or higher and lower than 90%) | 2 (Herbicidal ratio of 20% or higher and lower than 40%) | 0 (Herbicidal ratio of 5% or lower (almost no effect)) | 0 (Herbicidal ratio of 5% or lower (almost no effect)) | 0 (Herbicidal ratio of 5% or lower (almost no effect)) | 0 (Herbicidal ratio of 5% or lower (almost no effect)) | 3 (Herbicidal ratio of 40% or higher and lower than 70%) | 3 (Herbicidal ratio of 40% or higher and lower than 70%) | 3 (Herbicidal ratio of 40% or higher and lower than 70%) | 0 (Herbicidal ratio of 5% or lower (almost no effect)) | 3 (Herbicidal ratio of 40% or higher and lower than 70%) | 0 (Herbicidal ratio of 5% or lower (almost no effect)) | f: beet, effect on crop (criteria of Test Example 1) [21]: 0 (Herbicidal ratio of 5% or lower (almost no effect)); g: rapeseed, effect on crop (criteria of Test Example 1) [22]: 4 (Herbicidal ratio of 70% or higher and lower than 90%)
CON=C(C)CC1CC(OC(=O)N(c2ccccc2)C(C)C)=C(c2c(C)cc(C)cc2C)C1=O (stereo not shown) [1-127] |  |  |  |  |  |  |  |  |  |  |  |  |  |  |  |  |  |  |  |  | F: Digitaria ciliaris, herbicidal effect (criteria 0-5) [4]: 0 (Herbicidal ratio of 5% or lower (almost no effect)); G: Setaria viridis, herbicidal effect (criteria 0-5) [5]: 0 (Herbicidal ratio of 5% or lower (almost no effect)); H: Echinochloa crus-galli var. crus-galli, herbicidal effect (criteria 0-5) [6]: 0 (Herbicidal ratio of 5% or lower (almost no effect)); I: Avena fatua, herbicidal effect (criteria 0-5) [7]: 0 (Herbicidal ratio of 5% or lower (almost no effect)); J: Alopecurus myosuroides, herbicidal effect (criteria 0-5) [8]: 1 (Herbicidal ratio of 5% or higher and lower than 20%); K: Lolium multiflorum Lam., herbicidal effect (criteria 0-5) [9]: 1 (Herbicidal ratio of 5% or higher and lower than 20%); L: Apera spica-venti, herbicidal effect (criteria 0-5) [10]: 0 (Herbicidal ratio of 5% or lower (almost no effect)); M: Abutilon theophrasti, herbicidal effect (criteria 0-5) [11]: 0 (Herbicidal ratio of 5% or lower (almost no effect)); N: Amaranthus retroflexus, herbicidal effect (criteria 0-5) [12]: 0 (Herbicidal ratio of 5% or lower (almost no effect)); O: Chenopodium album, herbicidal effect (criteria 0-5) [13]: 0 (Herbicidal ratio of 5% or lower (almost no effect)); P: Stellaria media, herbicidal effect (criteria 0-5) [14]: 0 (Herbicidal ratio of 5% or lower (almost no effect)); Q: Galium spurium, herbicidal effect (criteria 0-5) [15]: 0 (Herbicidal ratio of 5% or lower (almost no effect)); R: Veronica persica, herbicidal effect (criteria 0-5) [16]: 0 (Herbicidal ratio of 5% or lower (almost no effect)); c: corn, effect on crop (criteria 0-5) [17]: 0 (Herbicidal ratio of 5% or lower (almost no effect)); d: soybean, effect on crop (criteria 0-5) [18]: 0 (Herbicidal ratio of 5% or lower (almost no effect)); b: directly sowed rice plant, effect on crop (criteria 0-5) [19]: 0 (Herbicidal ratio of 5% or lower (almost no effect)); e: wheat, effect on crop (criteria 0-5) [20]: 0 (Herbicidal ratio of 5% or lower (almost no effect)); f: beet, effect on crop (criteria 0-5) [21]: 0 (Herbicidal ratio of 5% or lower (almost no effect)); g: rapeseed, effect on crop (criteria 0-5) [22]: 0 (Herbicidal ratio of 5% or lower (almost no effect))
CC(=O)CC1CC(O)=C(c2c(C)cc(-n3ccnc3)cc2C)C1=O (stereo not shown) [7-025] | 1 (Herbicidal ratio of 5% or higher and lower than 20%) | 3 (Herbicidal ratio of 40% or higher and lower than 70%) | 0 (Herbicidal ratio of 5% or lower (almost no effect)) | 3 (Herbicidal ratio of 40% or higher and lower than 70%) | 0 (Herbicidal ratio of 5% or lower (almost no effect)) | 0 (Herbicidal ratio of 5% or lower (almost no effect)) | 0 (Herbicidal ratio of 5% or lower (almost no effect)) | 0 (Herbicidal ratio of 5% or lower (almost no effect)) | 0 (Herbicidal ratio of 5% or lower (almost no effect)) | 0 (Herbicidal ratio of 5% or lower (almost no effect)) | 0 (Herbicidal ratio of 5% or lower (almost no effect)) | 0 (Herbicidal ratio of 5% or lower (almost no effect)) | 0 (Herbicidal ratio of 5% or lower (almost no effect)) | 0 (Herbicidal ratio of 5% or lower (almost no effect)) | 0 (Herbicidal ratio of 5% or lower (almost no effect)) | 0 (Herbicidal ratio of 5% or lower (almost no effect)) | 0 (Herbicidal ratio of 5% or lower (almost no effect)) | 0 (Herbicidal ratio of 5% or lower (almost no effect)) | 0 (Herbicidal ratio of 5% or lower (almost no effect)) | 0 (Herbicidal ratio of 5% or lower (almost no effect)) | herbicidal effect on E, grade 0-5 [23]: 0 (Herbicidal ratio of 5% or lower (almost no effect)); f: beet, effect on crop (criteria of Test Example 1) [21]: 0 (Herbicidal ratio of 5% or lower (almost no effect)); g: rapeseed, effect on crop (criteria of Test Example 1) [22]: 0 (Herbicidal ratio of 5% or lower (almost no effect))
